According to publication PMC9894841, “Characterisation of a cyclic peptide that binds to the RAS binding domain of phosphoinositide 3-kinase p110α” (Scientific Reports, 2023):
Where “and” joins values, the source holds several entries; their conditions need not be identical. Equal entries are not always repeated. Entries after “also recorded” stand apart in the source; their conditions may differ. Residues, ends and D or L forms follow the SMILES beside them.

What was measured:
[1] = molecular target: p110α (p110α/p85α) (Homo sapiens, UniProt P42336); assay: Microscale thermophoresis (MST) binding to labelled p110α/p85α; conditions: for Kd: labelled protein 100 nM, 25 °C; for increase in affinity for p110α over cyclo-CRVLAA: MST
[2] = molecular target: T1, GST-RBDα/KRAS (Homo sapiens, UniProt P42336); assay: GST-RBDα/KRAS reverse two-hybrid system (RTHS), SICLOPPS screen; assay type: cell-based, E. coli; conditions: arabinose induced expression of the cyclic peptide
T1 construct: we created a fusion of the RBD (amino acids 133 – 314) with GST; expressed in transfected cells; host or cells: E. coli strain SNS126 (cassette integrated via pAH68)
Description: The SICLOPPS technique as previously published is based on two steps: first, building a reverse two-hybrid system (RTHS) that expresses the target protein complex in bacteria as a screening platform and second, the production of a genetically encoded cyclic peptide library[25]–[29]. […] Also, the expression of the full length p110α needs to be in association with the regulatory subunit p85α in order to achieve a stable protein dimer, which makes it a large and complex protein to express in bacteria. In a successful RTHS system, the engineered bacterial cell line should show a reduction of growth on selective media upon induction of expression of the target protein complex with increasing isopropyl β-d-1-thiogalactopyranoside (IPTG)[27]–[29]. […] We hypothesised that this could be due to a lack of solubility of RBDα, a previously described feature of the RBDs of p110 proteins. Therefore, we designed another RTHS carrying a GST fusion tag at the N-terminus of the RBDα (GST-RBDα/KRAS RTHS).
We used the GST-RBDα/KRAS RTHS to screen a CXXXXX (where X is any of the 20 canonical amino acids) SICLOPPS plasmid library of 3.2 million genetically encoded cyclic hexapeptides. The cyclic peptides contain an invariant cysteine and five other amino acids that are each equally distributed between the twenty possibilities. Thus, each SICLOPPS plasmid contains a different sequence representing a unique peptide.
Due to the lack of solubility of the p110α-RBD we created a fusion of the RBD (amino acids 133 – 314) with GST (Glutathione S-transferase) by PCR amplification, to produce a recombinant protein of GST-RBD (hereafter RBD). Both KRAS (amino acids 1–168—lacking the Hyper Variable Region) and the RBD were cloned into the pTHCP14 vector that contains two bacteriophage repressors P22 and 434, producing a cassette that consists of two fusion proteins—KRAS with 434 and RBD with P22. This cassette was then sub-cloned into the CRIM integration plasmid pAH68—for integration into E. coli strain SNS126 that contains the chimeric P22 and 434 operators. When expressed, the interaction of KRAS with the RBD brings together the P22 and the 434 repressors to form a dimer that will interact with the chimeric P22 and 434 operators—resulting in no growth on selective media.
The SICLOPPS library was generated by PCR amplification using degenerate primers encoding cyclo-CXXXXX hexapeptides (where X is any amino acid), producing around 3.2 million compounds. The SICLOPPS RTHS formation, cyclic peptide production and library screening were followed as described[24],[25],[46].

[3] = Solubility of the peptides (in words); assay type: physicochemical
[4] = molecular target: CRAF-RBD (Homo sapiens, UniProt P04049); assay: MST binding to CRAF-RBD
Procedure: Measurements were performed using a NanoTemper Monolith™ NT.115 instrument (NanoTemper Technologies GmbH, München, Germany). […] Labelling levels (generally in the range 0.3–0.4 dye molecules per protein molecule) were determined using calculated extinction coefficients for the protein and ε647 = 250,000 M^−1 cm^−1 (or ε495 = 70,000 M^−1 cm^−1) for the dye concentration. In a typical experiment 20 ml aliquots of a 100 nM stock solution of labelled protein were mixed with 20 ml aliquots of a serial dilution of binding partner. These solutions were then loaded into standard treated capillaries and MST measurements were performed at 25 °C using 20–40% LED power and 40–60% IR-Laser power. The laser Laser-On time was 30 s and Laser-Off time 5 s. All measurements were performed at least five times.

[5] = tested on: H1792 cells; assay: Western blot of phospho-AKT / phospho-ERK in H1792 cells; assay type: cell-based, human; conditions: RPMI 1640 10% FCS, 2, 10 and 50 µM (also 4, 20 and 100 µM), 4 h
Procedure: We treated the human lung cancer cell line H1792, growing at steady-state in Roswell Park Memorial Institute (RPMI) 1640 media with 10% Foetal Calf Serum (FCS), with the seven cyclic peptides at three different concentrations (2, 10 and 50 µM) for 4 h. After treatment we measured the effect of the peptides on the phosphorylation levels of AKT (pAKT-Ser473), a key downstream effector of p110α activity. […] In contrast, the phosphorylation levels of ERK (p-ERK), which is a downstream effector of the RAS/RAF/MEK/ERK pathway and is independent of p110α activity, were not affected.
The next day, 1 ml of medium was removed and the cells were treated with different peptide concentrations for 4 h. All peptides were dissolved in 25 mM Tris pH8, 100 mM NaCl and 1 mM TCEP. Cells were then harvested and lysed for SDS-PAGE and western blot analysis. Anti-calnexin antibody was obtained from Abcam. Antibodies directed against phospho-T202/Y204-ERK, ERK, phospho-S473-AKT and AKT were obtained from Cell Signaling. After western blotting, calnexin, AKT and phospho-AKT signals were quantified using ImageJ and statistical tests were done using Prism software.

T1 sequence (P42336 133-314): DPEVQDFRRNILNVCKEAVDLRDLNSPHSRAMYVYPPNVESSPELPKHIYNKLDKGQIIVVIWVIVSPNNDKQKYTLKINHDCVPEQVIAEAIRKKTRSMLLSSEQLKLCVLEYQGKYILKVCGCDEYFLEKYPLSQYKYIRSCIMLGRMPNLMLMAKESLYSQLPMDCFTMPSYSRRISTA
Sequence of p110α (p110α/p85α) (P42336 whole entry, species assumed): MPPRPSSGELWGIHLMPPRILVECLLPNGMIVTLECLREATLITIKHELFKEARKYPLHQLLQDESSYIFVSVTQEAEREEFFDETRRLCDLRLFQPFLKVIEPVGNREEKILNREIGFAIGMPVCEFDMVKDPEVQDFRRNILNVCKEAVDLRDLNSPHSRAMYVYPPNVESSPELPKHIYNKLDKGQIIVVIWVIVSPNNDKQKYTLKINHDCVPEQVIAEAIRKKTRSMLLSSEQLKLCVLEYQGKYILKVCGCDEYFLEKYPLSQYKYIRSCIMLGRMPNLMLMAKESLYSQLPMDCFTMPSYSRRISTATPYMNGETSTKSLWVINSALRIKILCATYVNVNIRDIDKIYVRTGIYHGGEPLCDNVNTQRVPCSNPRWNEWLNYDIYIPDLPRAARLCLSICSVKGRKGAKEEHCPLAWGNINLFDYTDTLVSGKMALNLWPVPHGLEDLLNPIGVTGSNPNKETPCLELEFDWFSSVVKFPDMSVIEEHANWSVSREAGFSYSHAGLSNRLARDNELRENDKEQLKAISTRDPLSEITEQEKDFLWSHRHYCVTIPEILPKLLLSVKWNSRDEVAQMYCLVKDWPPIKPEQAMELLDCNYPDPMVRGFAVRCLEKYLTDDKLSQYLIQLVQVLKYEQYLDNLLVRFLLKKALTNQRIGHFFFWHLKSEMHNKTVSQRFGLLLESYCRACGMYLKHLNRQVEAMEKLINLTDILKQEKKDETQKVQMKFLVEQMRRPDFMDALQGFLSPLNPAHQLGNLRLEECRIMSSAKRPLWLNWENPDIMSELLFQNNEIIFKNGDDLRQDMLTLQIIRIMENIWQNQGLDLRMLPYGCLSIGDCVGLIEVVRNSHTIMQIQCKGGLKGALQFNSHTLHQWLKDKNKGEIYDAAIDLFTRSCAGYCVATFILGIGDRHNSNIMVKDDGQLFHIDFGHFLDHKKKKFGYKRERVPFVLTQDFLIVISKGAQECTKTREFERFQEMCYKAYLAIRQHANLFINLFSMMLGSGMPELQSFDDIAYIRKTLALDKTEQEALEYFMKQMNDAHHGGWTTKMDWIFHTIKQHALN
Sequence of p110α (p110α/p85α) (P27986 whole entry partner, species assumed): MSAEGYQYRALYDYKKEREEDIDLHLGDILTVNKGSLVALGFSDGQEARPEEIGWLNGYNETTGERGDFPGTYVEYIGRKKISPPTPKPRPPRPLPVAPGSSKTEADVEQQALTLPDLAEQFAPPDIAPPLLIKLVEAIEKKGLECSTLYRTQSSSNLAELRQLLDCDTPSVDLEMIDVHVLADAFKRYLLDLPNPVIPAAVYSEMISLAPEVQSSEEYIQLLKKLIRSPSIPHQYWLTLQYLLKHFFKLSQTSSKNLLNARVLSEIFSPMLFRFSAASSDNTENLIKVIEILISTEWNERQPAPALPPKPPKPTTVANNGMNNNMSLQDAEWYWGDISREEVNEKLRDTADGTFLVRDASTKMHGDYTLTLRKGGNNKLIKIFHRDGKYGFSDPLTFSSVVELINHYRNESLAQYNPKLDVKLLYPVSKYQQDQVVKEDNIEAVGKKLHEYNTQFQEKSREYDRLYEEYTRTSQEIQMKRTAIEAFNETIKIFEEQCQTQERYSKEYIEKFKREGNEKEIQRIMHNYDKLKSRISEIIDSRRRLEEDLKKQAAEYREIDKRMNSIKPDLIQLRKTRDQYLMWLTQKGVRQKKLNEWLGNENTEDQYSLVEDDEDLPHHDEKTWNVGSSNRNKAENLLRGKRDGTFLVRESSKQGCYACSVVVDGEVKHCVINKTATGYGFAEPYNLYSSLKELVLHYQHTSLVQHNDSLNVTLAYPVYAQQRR
Sequence of CRAF-RBD (P04049 56-131 limits assumed): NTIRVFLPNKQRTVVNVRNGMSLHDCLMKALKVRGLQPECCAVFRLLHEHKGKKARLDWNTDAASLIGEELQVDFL

Compound	Kd [1]	regrowth of the GST-RBDα/KRAS RTHS on selective media with IPTG [2]	other results
CC(C)C[C@@H]1NC(=O)[C@H](C(C)C)NC(=O)[C@H](CCCNC(=N)N)NC(=O)[C@H](CS)NC(=O)[C@H](CCC(=O)O)NC(=O)[C@H](C)NC1=O [CRVLAE, Cyclo-CRVLAE] (cyclo(CRVLAE))	≥ 817 µM	–	–
CC(C)C[C@@H]1NC(=O)[C@H](C(C)C)NC(=O)[C@H](CCCNC(=N)N)NC(=O)[C@H](CS)NC(=O)[C@H](C)NC(=O)[C@H](CC(=O)O)NC1=O [CRVLDA, Cyclo-CRVLDA] (cyclo(CRVLDA))	≥ 476 µM	–	–
CC(C)C[C@@H]1NC(=O)[C@H](C(C)C)NC(=O)[C@H](CCCNC(=N)N)NC(=O)[C@H](CS)NC(=O)[C@H](C)NC(=O)[C@H](CCC(=O)O)NC1=O [CRVLEA, Cyclo-CRVLEA] (cyclo(CRVLEA))	≥ 1210 µM	–	–
CC(C)C[C@@H]1NC(=O)[C@H](C(C)C)NC(=O)[C@H](CCCNC(=N)N)NC(=O)[C@H](CS)NC(=O)[C@H](C)NC(=O)[C@H](CCCNC(=N)N)NC1=O [CRVLRA, Cyclo-CRVLRA] (cyclo(CRVLRA))	≥ 140 µM	–	–
CC(C)C[C@@H]1NC(=O)[C@H](CCCCN)NC(=O)[C@H](CS)NC(=O)[C@H](CC(C)C)NC(=O)[C@H](C(C)C)NC(=O)[C@H](C(C)C)NC1=O [cyclo-CKLVVL, Cyclo-CKLVVL] (cyclo(CKLVVL))	–	regrowth	–
CC(C)C[C@@H]1NC(=O)[C@H](CS)NC(=O)[C@H](Cc2ccc(O)cc2)NC(=O)[C@H](Cc2c[nH]c3ccccc23)NC(=O)[C@H](Cc2c[nH]c3ccccc23)NC(=O)[C@H](C(C)C)NC1=O [cyclo-CLVWWY, Cyclo-CLVWWY] (cyclo(CLVWWY))	–	regrowth	–
CC(C)C[C@@H]1NC(=O)[C@H](CS)NC(=O)[C@H](Cc2c[nH]c3ccccc23)NC(=O)[C@H](Cc2c[nH]c3ccccc23)NC(=O)[C@H](Cc2ccc(O)cc2)NC(=O)[C@H](Cc2c[nH]c3ccccc23)NC1=O [cyclo-CLWYWW, Cyclo-CLWYWW] (cyclo(CLWYWW))	–	regrowth	–
CSCC[C@@H]1NC(=O)[C@H](CS)NC(=O)[C@H](CCCNC(=N)N)NC(=O)CNC(=O)CNC(=O)[C@H](CO)NC1=O [cyclo-CMSGGR, Cyclo-CMSGGR] (cyclo(CMSGGR))	–	regrowth	–
CC[C@H](C)[C@@H]1NC(=O)[C@H](CCCNC(=N)N)NC(=O)[C@H](CS)NC(=O)[C@H]([C@@H](C)CC)NC(=O)[C@H](C(C)C)NC(=O)[C@H](C(C)C)NC1=O [cyclo-CRIVVI, Cyclo-CRIVVI] (cyclo(CRIVVI))	–	regrowth	–
CC(C)C[C@@H]1NC(=O)[C@H](C(C)C)NC(=O)[C@H](CCCNC(=N)N)NC(=O)[C@H](CS)NC(=O)[C@H](C)NC(=O)[C@H](C)NC1=O [cyclo-CRVLAA, Cyclo-CRVLAA]	≥ 360 µM and ~360 µM	–	binding to p110α in words, MST [1]: weak binding; also recorded: interacted weakly; solubility in words [3]: most soluble of these
CC(C)C[C@@H]1NC(=O)[C@H](C(C)C)NC(=O)[C@H](CCCNC(=N)N)NC(=O)[C@H](CS)NC(=O)[C@H](CC(=O)O)NC(=O)[C@H](C)NC1=O [cyclo-CRVLAD, Cyclo-CRVLAD]	11.8 ± 1.75 µM	–	increase in affinity for p110α over cyclo-CRVLAA [1]: 30 fold; binding to CRAF-RBD in words, MST [4]: does not interact; also recorded: did not produce a positive signal of interaction
CC(C)C[C@@H]1NC(=O)[C@H](C(C)C)NC(=O)[C@H](CCCNC(=N)N)NC(=O)[C@H](CS)NC(=O)[C@H](CCCNC(=N)N)NC(=O)[C@H](C)NC1=O [cyclo-CRVLAR, Cyclo-CRVLAR] (cyclo(ARCRVL))	–	–	increase in affinity for p110α over cyclo-CRVLAA [1]: tenfold
CC(C)C[C@@H]1NC(=O)[C@H](C(C)C)NC(=O)[C@H](CCCNC(=N)N)NC(=O)[C@H](CS)NC(=O)[C@H](CCCNC(=N)N)NC(=O)[C@H]([C@@H](C)O)NC1=O [cyclo-CRVLTR, Cyclo-CRVLTR] (cyclo(CRVLTR))	–	–	effect on phospho-AKT (pAKT-Ser473) levels [5]: mild effect
CC[C@H](C)[C@@H]1NC(=O)[C@H](C(C)C)NC(=O)[C@H](CS)NC(=O)[C@H](C(C)C)NC(=O)[C@H](C(C)C)NC(=O)[C@H](CC(C)C)NC1=O [cyclo-CVILVV, Cyclo--CVILVV] (cyclo(CVILVV))	–	regrowth	–
CC(C)C[C@@H]1NC(=O)[C@H](Cc2ccc(O)cc2)NC(=O)[C@H](CC(C)C)NC(=O)[C@H](CC(C)C)NC(=O)[C@H](Cc2c[nH]c3ccccc23)NC(=O)[C@H](CS)NC1=O [cyclo-CWLLYL, Cyclo-CWLLYL] (cyclo(CWLLYL))	–	regrowth	–
Cyclo-CAWCGR	–	regrowth	–
